Measured values published in patent publication US20170095440A1, “METHOD OF TREATING CANINE PANCREATITIS” (CK9, LLC, priority 2014, published 2017).
Several values for one entry are separate records, joined by “and”; a condition that tells them apart may be missing. Identical values can stand only once. Entries after “also recorded” stand apart in the source; their conditions may differ.

Assays:
rat models = settings: cited from earlier work
TGF-β1 = settings: one published study, cited from earlier work
[1] = system: dogs with suspected chronic pancreatitis; test: Serum cTLI before and after treatment, clinical trial; type: in vivo, dog
Procedure: (§1) Treatment effects on overall health status, quality of life, and clinical signs were also evaluated with serum biochemistry profiles, complete blood counts, and owner questionnaires.
(§2) Dogs were identified by screening current submissions to the Gastrointestinal Laboratory at Texas A&M indicative of pancreatitis (canine pancreas-specific lipase≧400 μg/L) using an immunoassay for measurement of canine pancreas-specific lipase in canine serum known as the spec CPL® Test (IDEXX, Laboratories). A number of potential study participants were directly referred to the investigator by veterinarians, based on positive pet-side SNAP cPL® Test (IDEXX Laboratories, Westbrook, Me., USA) results and concomitant clinical signs. After ascertaining individual suitability of a patient with the referring veterinarian, serum canine pancreas-specific lipase concentration, serum biochemistry profile, and complete blood count were evaluated or re-evaluated 12±4 days after collection of the initial sample submission to the Gastrointestinal Laboratory. Based on the assumption that consecutive canine pancreas-specific lipase elevations indicate chronic pancreatitis, enrollment was offered for patients with canine pancreas-specific lipase concentrations≧400 μg/L, serum triglyceride concentrations below 500 mg/dL, and no indication of hepatic, renal, or other organ disease. […] Owner consent was required prior to phlebotomy and for enrollment into the trial.
(§3) […] […] Individual patients were medicated for between 21 to 31 days.
(§4) Blood samples were collected before beginning the treatment and after completion of the treatment period. Complete blood count (red blood cell count, hematocrit, mean corpuscular volume, mean corpuscular hemoglobin, mean corpuscular hemoglobin concentration, differential and absolute white blood cell count, red blood cell count, hemoglobin, platelet estimate, red blood cell morphology, white blood cell morphology, and hemoparasites) was evaluated at the Texas Veterinary Medical Diagnostic Laboratory (TVMDL). A serum chemistry profile with electrolytes (glucose, blood urea nitrogen, creatinine, calcium, phosphorus, albumin, total protein, total bilirubin, alkaline phosphatase, alanine amino transferase, aspartate amino transferase, γ-glutamyl transferase, cholesterol, triglycerides, globuline, sodium, potassium, and chloride) was performed on a SIRRUS analyzer (Stanbio, Boerne, Tex., USA). Serum concentrations of cPL (RI: 0-200 μg/L; Spec cPL® IDEXX Laboratories, Westbrook, Me., USA), cTLI (RI: 5.7-45.2 μg/L; Canine TLI DOUBLE ANTIBODY®, Siemens Healthcare Diagnostics, Los Angeles, Calif., USA), cobalamin (RI: 251-908 ng/L), and folate (RI: 7.7-24.4 μg/L; Immulite 2000®, Siemens Healthcare Diagnostics Inc., Deerfield, Ill., USA), canine specific C-reactive protein (RI: 0-7.6 mg/L, Tridelta Development Limited, Maynooth, CO. Kildare, Ireland), S100A12 (RI: 56-331 μg/L, Gastrointestinal Laboratory in-house radioimmunoassay), and TGF-β1 (RI: 38-72 ng/mL; Quantikine® ELISA, R&D Systems, Minneapolis, […]., USA) were performed at the Gastrointestinal Lab at Texas A&M University.
(§5) Pre-treatment and post-treatment results for all diagnostic tests were statistically analyzed using Prism 6 (GraphPad Software, La Jolla, Calif., USA). The D'Agostino-Pearson omnibus test was used to evaluate all datasets for Gaussian distribution. Groups were compared using a paired t-test for normally-distributed data sets and a Wilcoxon matched-pairs test when Gaussian distribution could not be assumed. Mean values and standard deviation are reported for data sets with Gaussian distribution. Median and minimum/maximum values are reported for data sets where Gaussian distribution could not be assumed. The significance threshold was set at p=0.05.

[2] = system: dogs with suspected chronic pancreatitis; test: Serum S100A12 before and after treatment, clinical trial; type: in vivo, dog; settings: 8 mg/kg q 8 hrs, n=17
[3] = system: dogs with suspected chronic pancreatitis; test: Serum canine pancreas-specific lipase (cPL/cPLI, Spec cPL) before and after treatment, clinical trial; type: in vivo, dog; settings: for Change in serum cPL/cPLI, pre- vs post-treatment (Wilcoxon matched-pair): methanesulfonate
Procedure: as §2, §3, §4
Additionally, samples that exceeded the working range of the Spec cPL assay were diluted and re-analyzed.
as §5

[4] = system: dogs with suspected chronic pancreatitis; test: Serum S100A12 before and after treatment, clinical trial; type: in vivo, dog; settings: for Change in serum S100A12, pre- vs post-treatment: methanesulfonate
Procedure: as §1, §2
(§6) Twelve enrolled dogs received camostat capsules at a dosage of 4 mg/kg q 8 hrs, for a total dose of 12 mg/kg q 24 hrs. […] Individual patients were medicated for between 21 to 31 days.
Blood samples were collected before beginning the treatment and after completion of the treatment period. Complete blood count (red blood cell count, hematocrit, mean corpuscular volume, mean corpuscular hemoglobin, mean corpuscular hemoglobin concentration, differential and absolute white blood cell count, red blood cell count, hemoglobin, platelet estimate, red blood cell morphology, white blood cell morphology, and hemoparasites) was evaluated at the Texas Veterinary Medical Diagnostic Laboratory (TVMDL). A serum chemistry profile with electrolytes (glucose, blood urea nitrogen, creatinine, calcium, phosphorus, albumin, total protein, total bilirubin, alkaline phosphatase, alanine amino transferase, aspartate amino transferase, γ-glutamyl transferase, cholesterol, triglycerides, globuline, sodium, potassium, and chloride) was performed on a SIRRUS analyzer (Stanbio, Boerne, Tex., USA). […]
Pre-treatment and post-treatment results for all diagnostic tests were statistically analyzed using Prism 6 (GraphPad Software, La Jolla, Calif., USA). […]

rats = settings: cited from earlier work
[5] = system: dogs with suspected chronic pancreatitis; test: Serum TGF-β1 before and after treatment, clinical trial; type: in vivo, dog; settings: for Change in serum TGF-β1, pre- vs post-treatment (paired t-test): methanesulfonate
Procedure: as §1, §2, §6, §4, §5

dogs = settings: 10, 30 and 100 mg/kg/day, oral capsules, 30-day study; cited from earlier work
[6] = system: dogs with suspected chronic pancreatitis; test: Adverse drug reactions, complete blood count and serum biochemistry profile, clinical trial; type: in vivo, dog
Procedure: as §1, §6
Patients were treated at home and their overall health was monitored by their owners and the referring physician.
as §4, §5

[7] = all treated dogs combined, n=29, trend towards a decrease

Compound: CN(C)C(=O)COC(=O)Cc1ccc(OC(=O)c2ccc(NC(=N)N)cc2)cc1 [Camostat Mesilate, N,N-dimethylcarbamoylmethyl-4-(4-guanidinobenzoyloxy)phenylacetate methanesulfonate]
- Fibrosis associated with chronic pancreatitis (rat models): suppress fibrosis
- Microscopic signs of inflammation (rat models): markedly decrease microscopic signs of inflammation
- Pro-inflammatory cytokine production (rat models): suppress pro-inflammatory cytokine production
- Hepatic stellate cell activation and hepatic fibrosis (TGF-β1): attenuated hepatic stellate cell activation as well as hepatic fibrosis
- Systemic or local side effects (TGF-β1): without entailing apparent systemic or local side effects
- TGF-β1 concentrations (TGF-β1; methanesulfonate): decreased TGF-β1 concentrations; also recorded: suppressed
- Change in serum cTLI, pre- vs post-treatment ([1]; 4 mg/kg q 8 hrs, n=11, methanesulfonate): no significant difference; also recorded: did not change significantly
- Serum cTLI concentration post-treatment (median) ([1]; 4 mg/kg q 8 hrs, n=11, pre-treatment median 22, post range 17-55, p=0.8311): 28 µg/L
- Change in serum cTLI, pre- vs post-treatment ([1]; 8 mg/kg q 8 hrs, n=17, methanesulfonate): no significant difference; also recorded: No significant changes
- Serum cTLI concentration post-treatment (median) ([1]; 8 mg/kg q 8 hrs, n=17, pre-treatment median 35, p=0.1594, methanesulfonate): 22 µg/L and 24 µg/L
- Change in serum cTLI, pre- vs post-treatment ([1]; all treated dogs combined, n=28, methanesulfonate): no significant difference; also recorded: No significant changes
- Serum cTLI concentration post-treatment (median) ([1]; all treated dogs combined, n=28, pre-treatment median 32, post range 6-81, p=0.2098): 25 µg/L
- Change in serum S100A12, pre- vs post-treatment ([2]; methanesulfonate): no significant difference; also recorded: did not change significantly
- Serum S100A12 concentration post-treatment (median) ([2]; pre-treatment median 147, post range 58-746, p=0.8176): 148 µg/L
- Serum cPL/cPLI concentration post-treatment (median) ([3]; 4 mg/kg q 8 hrs oral capsules, 21-31 days, n=12, pre-treatment median 501, post range 125-2,836, p=0.9697): 453 µg/L
- Change in serum cPL/cPLI, pre- vs post-treatment (Wilcoxon matched-pair) ([3]; 4 mg/kg q 8 hrs, n=12): no significant difference; also recorded: did not change significantly
- Change in serum cPL/cPLI, pre- vs post-treatment (Wilcoxon matched-pair) ([3]; 8 mg/kg q 8 hrs (24 mg/kg q d), n=17): significant difference; also recorded: statistically significant change; also recorded: statistically significant decrease
- Serum cPL/cPLI concentration post-treatment (median) ([3]; 8 mg/kg q 8 hrs oral capsules, 21-31 days, n=17, pre-treatment median 882, post range 193-2,580, p=0.0232): 633 µg/L
- Serum cPL/cPLI concentration post-treatment (median) ([3]; all treated dogs combined, n=29, pre-treatment median 690, post range 125-2,836, p=0.0903 or 0.0562): 514 µg/L
- Change in serum cPL/cPLI, pre- vs post-treatment (Wilcoxon matched-pair) [3, 7]: no statistically significant difference
- Change in serum S100A12, pre- vs post-treatment ([4]; 4 mg/kg q 8 hrs, n=11): decreased significantly
- Serum S100A12 concentration post-treatment (median) ([4]; 4 mg/kg q 8 hrs, n=11, pre-treatment median 160, post range 43-449, p=0.0010): 88 µg/L
- Change in serum S100A12, pre- vs post-treatment ([4]; all treated dogs combined, n=28): no significant difference; also recorded: did not change significantly; also recorded: did not lead to any significant changes
- Serum S100A12 concentration post-treatment (median) ([4]; all treated dogs combined, n=28, pre-treatment median 154, post range 43-746, p=0.1438): 133 µg/L
- Clinical signs up to 30 minutes postdose (rats; 1300 mg/kg/day): preening and a slight decrease in locomotor activity
- Body weight gain (rats; 550 and 1300 mg/kg/day): suppressed
- Clinical signs immediately after dosing (rats; all treated groups: 100, 235, 550, 1300 mg/kg/day, 90 and 180 days): hypersalivation
- Change in serum TGF-β1, pre- vs post-treatment (paired t-test) ([5]; 4 mg/kg q 8 hrs, n=12): no significant difference; also recorded: did not change significantly
- Serum TGF-β1 concentration post-treatment (mean) ([5]; 4 mg/kg q 8 hrs, n=12, pre-treatment mean 45, post SD ±8, p=0.3679): 43 ng/mL
- Change in serum TGF-β1, pre- vs post-treatment (paired t-test) ([5]; 8 mg/kg q 8 hrs, n=17): no significant difference; also recorded: did not change significantly
- Serum TGF-β1 concentration post-treatment (mean) ([5]; 8 mg/kg q 8 hrs, n=17, pre-treatment mean 47, post SD ±12, p=0.1686): 40 ng/mL
- Serum TGF-β1 concentration post-treatment (mean) ([5]; all treated dogs combined, n=29, pre-treatment mean 46, post SD ±11, p=0.0986): 41 ng/mL
- Change in serum TGF-β1, pre- vs post-treatment (paired t-test) [5, 7]: no statistically significant difference; also recorded: did not lead to any significant changes
- Toxicity findings (dogs): no significant toxicities
- Adverse drug reactions ([6]; 4 mg/kg q 8 hrs, 12 dogs, reported in two dogs): increased flatulence
- Adverse drug reactions ([6]; 8 mg/kg q 8 hrs, 17 dogs, each sign in one dog, methanesulfonate): pruritus in one front paw; also recorded: increased flatulence
- Complete blood count and serum biochemistry parameters, pre- vs post-treatment ([6]; all treated dogs): no statistically significant differences
- Increase in serum aspartate amino transferase activity after treatment ([6]; another individual dog): 6 fold
- Side effects overall ([6]; both dosages (12 or 24 mg/kg q d), 26±5 days): very mild side effects
- Other clinical signs suggestive of an adverse drug reaction ([6]; either group (4 or 8 mg/kg q 8 hrs)): No other clinical signs suggestive of an adverse drug reaction were observed
- Increase in serum γ-glutamyl transferase activity after treatment ([6]; one individual dog): 35 fold
- Increase in aspartate amino transferase activity after treatment ([6]; one individual dog (same dog as the γ-glutamyl transferase increase)): 6 fold
